According to ChEMBL document CHEMBL3044790, “Evaluation of antiasthmatic activity of 7,8,9,10-tetrahydroazepino[2,1-b]quinazolin-12(6H)-one in combination with ambroxol in Guinea pigs” (2012):
Activity calls are given as the source filed them. The calls are words filed in the database; no cut-off is given here.

Columns and labels:
Cavia porcellus [1] = test: Antiasthmatic activity in Cavia porcellus Hartley (guinea pig) ovalbumin-induced hyperresponsive model assessed as increase in GSH level in per gram of lung tissue at 100 mg/kg, ip qd administered for 7 days challenged 30 min post last dose on day 7 (reference value: 15.175 +/- 1.809 umol/g); type: functional; conditions: route intraperitoneal
Cavia porcellus [2] = test: Antiasthmatic activity in Cavia porcellus Hartley (guinea pig) ovalbumin-induced hyperresponsive model assessed as reduction in total lymphocyte count in BAL at 100 mg/kg, ip qd administered for 7 days challenged 30 min post last dose on day 7; type: functional, organism-based; parameters: dose 100 mg/kg
Cavia porcellus [3] = test: Antiasthmatic activity in Cavia porcellus Hartley (guinea pig) ovalbumin-induced hyperresponsive model assessed as increase in GSH level in BAL at 100 mg/kg, ip qd administered for 7 days challenged 30 min post last dose on day 7 (reference value: 28.95 +/- 3.66 umol/ml); type: functional; conditions: route intraperitoneal
Cavia porcellus [4] = test: Antiasthmatic activity in Cavia porcellus Hartley (guinea pig) ovalbumin-induced hyperresponsive model assessed as cough latency at 50 mg/kg, ip qd administered for 7 days challenged 30 min post last dose on day 7 (reference value: 4.75 +/- 0.86 min); type: functional; conditions: route intraperitoneal
Cavia porcellus [5] = test: Antiasthmatic activity in Cavia porcellus Hartley (guinea pig) ovalbumin-induced hyperresponsive model assessed as reduction in TBARS level in per gram of lung tissue at 100 mg/kg, ip qd administered for 7 days challenged 30 min post last dose on day 7 (reference value: 0.291 +/- 0.039 nmol/g); type: functional; conditions: route intraperitoneal
Cavia porcellus [6] = test: Antiasthmatic activity in Cavia porcellus Hartley (guinea pig) ovalbumin-induced hyperresponsive model assessed as reduction in eosinophil count in BAL at 50 mg/kg, ip qd administered for 7 days challenged 30 min post last dose on day 7; type: functional, organism-based; parameters: dose 50 mg/kg
Cavia porcellus [7] = test: Antiasthmatic activity in Cavia porcellus Hartley (guinea pig) ovalbumin-induced hyperresponsive model assessed as decrease in nitrate/nitrite level in BAL at 100 mg/kg, ip qd administered for 7 days challenged 30 min post last dose on day 7 by griess assay (reference value: 70.16 +/- 6.20 umol/ml); type: functional; conditions: route intraperitoneal
Cavia porcellus [8] = test: Antiasthmatic activity in Cavia porcellus Hartley (guinea pig) ovalbumin-induced hyperresponsive model assessed as reduction in TBARS level in BAL at 100 mg/kg, ip qd administered for 7 days challenged 30 min post last dose on day 7 (reference value: 0.471 +/- 0.08 nmol/ml); type: functional; conditions: route intraperitoneal
Cavia porcellus [9] = test: Antiasthmatic activity in Cavia porcellus Hartley (guinea pig) ovalbumin-induced hyperresponsive model assessed as cough latency at 100 mg/kg, ip qd administered for 7 days challenged 30 min post last dose on day 7 (reference value: 4.75 +/- 0.86 min); type: functional; conditions: route intraperitoneal
Cavia porcellus [10] = test: Antiasthmatic activity in Cavia porcellus Hartley (guinea pig) ovalbumin-induced hyperresponsive model assessed as reduction in eosinophil count in BAL at 100 mg/kg, ip qd administered for 7 days challenged 30 min post last dose on day 7; type: functional, organism-based; parameters: dose 100 mg/kg
Cavia porcellus [11] = test: (§1) Antiasthmatic activity in Cavia porcellus Hartley (guinea pig) ovalbumin-induced hyperresponsive model assessed as decrease in nitrate/nitrite level in per gram of lung tissue at 100 mg/kg, ip qd administered for 7 days challenged 30 min post last dose on day 7 by griess assay (reference value: 195.55 +/- 8.34 umol/g); type: functional; conditions: route intraperitoneal
Cavia porcellus [12] = test: Antiasthmatic activity in Cavia porcellus Hartley (guinea pig) ovalbumin-induced hyperresponsive model assessed as reduction in total lymphocyte count in BAL at 50 mg/kg, ip qd administered for 7 days challenged 30 min post last dose on day 7; type: functional, organism-based; parameters: dose 50 mg/kg
Cavia porcellus [13] = test: Antiasthmatic activity in Cavia porcellus Hartley (guinea pig) ovalbumin-induced hyperresponsive model assessed as cough latency at 10 mg/kg, ip qd administered for 7 days challenged 30 min post last dose on day 7 (reference value: 4.75 +/- 0.86 min); type: functional; conditions: route intraperitoneal
Cavia porcellus [14] = test: Antiasthmatic activity in Cavia porcellus Hartley (guinea pig) ovalbumin-induced hyperresponsive model assessed as cough latency at 20 mg/kg, ip qd administered for 7 days challenged 30 min post last dose on day 7 (reference value: 4.75 +/- 0.86 min); type: functional; conditions: route intraperitoneal
Cavia porcellus [15] = test: Antiasthmatic activity in Cavia porcellus Hartley (guinea pig) ovalbumin-induced hyperresponsive model assessed as increase in GSH level in BAL at 20 mg/kg, ip qd administered for 7 days challenged 30 min post last dose on day 7 (reference value: 28.95 +/- 3.66 umol/ml); type: functional; conditions: route intraperitoneal
Bronchus smooth muscle = test: Inhibition of ovalbumin-induced constriction of Cavia porcellus (guinea pig) bronchial smooth muscle; type: functional
Cavia porcellus [16] = test: Antiasthmatic activity in Cavia porcellus Hartley (guinea pig) ovalbumin-induced hyperresponsive model assessed as reduction in TBARS level in BAL at 20 mg/kg, ip qd administered for 7 days challenged 30 min post last dose on day 7 (reference value: 0.471 +/- 0.08 nmol/ml); type: functional; conditions: route intraperitoneal
Cavia porcellus [17] = test: Antiasthmatic activity in Cavia porcellus Hartley (guinea pig) ovalbumin-induced hyperresponsive model assessed as reduction in TBARS level in per gram of lung tissue at 20 mg/kg, ip qd administered for 7 days challenged 30 min post last dose on day 7 (reference value: 0.291 +/- 0.039 nmol/g); type: functional; conditions: route intraperitoneal
Cavia porcellus [18] = test: Antiasthmatic activity in Cavia porcellus Hartley (guinea pig) ovalbumin-induced hyperresponsive model assessed as reduction in eosinophil count in BAL at 20 mg/kg, ip qd administered for 7 days challenged 30 min post last dose on day 7; type: functional, organism-based; parameters: dose 20 mg/kg
Cavia porcellus [19] = test: Antiasthmatic activity in Cavia porcellus Hartley (guinea pig) ovalbumin-induced hyperresponsive model assessed as decrease in nitrate/nitrite level in BAL at 20 mg/kg, ip qd administered for 7 days challenged 30 min post last dose on day 7 by griess assay (reference value: 70.16 +/- 6.20 umol/ml); type: functional; conditions: route intraperitoneal
Cavia porcellus [20] = test: as §1, with “20” for “100”; type: functional; conditions: route intraperitoneal
Cavia porcellus [21] = test: Antiasthmatic activity in Cavia porcellus Hartley (guinea pig) ovalbumin-induced hyperresponsive model assessed as increase in GSH level in per gram of lung tissue at 20 mg/kg, ip qd administered for 7 days challenged 30 min post last dose on day 7 (reference value: 15.175 +/- 1.809 umol/g); type: functional; conditions: route intraperitoneal
Cavia porcellus [22] = test: Antiasthmatic activity in Cavia porcellus Hartley (guinea pig) ovalbumin-induced hyperresponsive model assessed as reduction in total lymphocyte count in BAL at 20 mg/kg, ip qd administered for 7 days challenged 30 min post last dose on day 7; type: functional, organism-based; parameters: dose 20 mg/kg

## Nc1c(Br)cc(Br)cc1CN[C@H]1CC[C@H](O)CC1 [AMBROXOL]
Cavia porcellus [1]
  Activity: 50.28 µmol
Cavia porcellus [2]
  Activity: Active
Cavia porcellus [3]
  Activity: 56.83 µmol/mL
Cavia porcellus [4]
  Time: 5.627 min
Cavia porcellus [5]
  Activity: 0.146 nmol
Cavia porcellus [6]
  Activity: Active
Cavia porcellus [7]
  Activity: 49.075 µmol/mL
Cavia porcellus [8]
  Activity: 0.325 nmol/mL
Cavia porcellus [9]
  Time: 13.17 min
Cavia porcellus [10]
  Activity: Active
Cavia porcellus [11]
  Activity: 134.67 µmol
Cavia porcellus [12]
  Activity: Active

## O=c1c2ccccc2nc2n1CCCCC2
Cavia porcellus [13]
  Time: 15.67 min
Cavia porcellus [14]
  Time: 22.32 min
Cavia porcellus [15]
  Activity: 71.67 µmol/mL
Bronchus smooth muscle
  inhibition: Dose-dependent effect
Cavia porcellus [16]
  Activity: 0.199 nmol/mL
Cavia porcellus [17]
  Activity: 0.094 nmol
Cavia porcellus [18]
  Activity: Active
Cavia porcellus [19]
  Activity: 48.945 µmol/mL
Cavia porcellus [20]
  Activity: 81.777 µmol
Cavia porcellus [21]
  Activity: 66.67 µmol
Cavia porcellus [22]
  Activity: Active
